Measured values reported in US20030162803A1, “Anhydrovinblastine for the treatment of cancer” (priority 1997, published 2003).

What was measured:
[1] = single agent; cited from earlier work
[2] = system: H460 human non-small cell lung carcinoma tumor xenograph; test: H460 SC tumor mouse model; type: in vivo, SCID/Rag-2 mice
Description: Cultures of H460 Human Lung cells are available from the British Columbia Cancer Research Center. Cells were injected subcutaneously twice into mature male Rag-2 mice (24 mice, 1×10^6 cells/mouse) using a 26-gauge needle. The H460 cells were suspended in a Hank's Balanced Salt Solution without calcium. Tumors were allowed to form in the mice for 11 days.
When the tumors were well established, four separate groups of mice, were selected for administration of the three test articles (i.e. one group for each test article of AHVB bisulphate, AHVB ditartrate, and Navelbine™) and one control.
AHVB bisulphate and ditartrate, and Navelbine™ were solubilized using 5% dextrose saturated with Argon. Both of these articles were at a concentration of 20 mg/ml. Any dose dilutions were made with 5% dextrose.
The articles were administered intravenously on the days 1, 5 and 9, as were controls of 5% dextrose. Body weights and tumor measurements with calipers were taken every day for the first 10 days and then every other day for the remainder of the study.
Following administration of the test articles, the animals; weight and tumor size (using calipers) were determined daily for the first 10 days and then every other day for the remainder of the study. If the tumor size reached 1 gram in weight or the tumor started to ulcerate, the animals were sacrificed (by carbon dioxide inhalation) and subjected to necropsy. Animals were also monitored at least daily for signs of stress for the full length of the study. Animals manifesting severe symptoms of stress (rapid weight loss, panting, hunched posture, scruffy coat) were also sacrificed and a necropsy performed.
The results of the efficacy studies are given in FIG. 9 and present averages of data from 6 or fewer animals. […] Each tumor was measured in length and width and the volume of each tumor was calculated by […]. […] The calculation was performed each day the tumors were measured. The standard deviation of the mean and the standard error of the mean were calculated with the error bars appearing in the graph in FIG. 9. […]

[3] = Toxicological studies in dogs; type: in vivo
[4] = Toxicological studies in rats; type: in vivo
[5] = system: SK0V3 cells; test: Cytotoxicity assay, SKOV3 (FIG. 8); type: cell-based; details: 3 day incubation
Description: The IC50s for the SK0V3 and C-4 cells were 4.0 μM and 0.02 μM respectively. Both cell lines were obtained from the ATCC and grown using standard growth techniques and medium as described above. The IC50s were determined through standard cytoxicity assays described above, with each well containing approximately 10^4 cells.

[6] = IV 10 mg/kg and 20 mg/kg on days 1, 5 and 9

| SMILES | mild to moderate peripheral neuropathy (paresthesia and hypesthesia), frequency [1] | toxicity compared with Navelbine [2, 6] | tumor growth inhibition compared with Navelbine [2, 6] | activity compared with vincristine and vinorelbine ([2]; human tumor xenografts of NSCLC, equitoxic doses) | toxicities [3] | toxicities [4] | IC50 [5] [µM] |
| --- | --- | --- | --- | --- | --- | --- | --- |
| CCC1=C[C@@H]2CN(C1)Cc1c([nH]c3ccccc13)[C@@](C(=O)OC)(c1cc3c(cc1OC)N(C)[C@H]1[C@@](O)(C(=O)OC)[C@H](OC(C)=O)[C@]4(CC)C=CCN5CC[C@]31[C@@H]54)C2 [Navelbine, 3′,4′-didehydro-4′-deoxy-C′-norvincaleukoblastine-di-L-tartrate] | 10 % of patients |  |  |  |  |  |  |
| CCC1=C[C@H]2CN(CCc3c([nH]c4ccccc34)[C@@](C(=O)OC)(c3cc4c(cc3OC)N(C)[C@H]3[C@@](O)(C(=O)OC)[C@H](OC(C)=O)[C@]5(CC)C=CCN6CC[C@]43[C@@H]65)C2)C1 [AHVB, 3′,4′-anhydrovinblastine] |  | less toxic than Navelbine™ | greater tumor growth inhibition | superior activity to that of both vincristine and vinorelbine | reversible myelosupression and gastrointestinal toxicities | reversible myelosupression and gastrointestinal toxicities | 4 |
